Assay results: patent US20250145585A1, “HETEROCYCLIC INHIBITORS OF IGF-1R FOR TREATMENT OF DISEASE” (HORIZON THERAPEUTICS IRELAND DAC, priority 2023, published 2025)

Assays:
IGF-1R [1] = target: T1, IGF-1R (Homo sapiens, UniProt P08069); assay: Example B-1: IGF-1R Assay (PC3 cells stimulated with IGF1, AlphaLISA on cell lysates); format: cell-based; conditions: compound two hours, IGF1 200 ng/mL for 30 min, read-out: IC50, Biological Activity against IGF-1R (Table B1)
T1 construct: expressed in transfected cells
T1 sequence (P08069 31-1367): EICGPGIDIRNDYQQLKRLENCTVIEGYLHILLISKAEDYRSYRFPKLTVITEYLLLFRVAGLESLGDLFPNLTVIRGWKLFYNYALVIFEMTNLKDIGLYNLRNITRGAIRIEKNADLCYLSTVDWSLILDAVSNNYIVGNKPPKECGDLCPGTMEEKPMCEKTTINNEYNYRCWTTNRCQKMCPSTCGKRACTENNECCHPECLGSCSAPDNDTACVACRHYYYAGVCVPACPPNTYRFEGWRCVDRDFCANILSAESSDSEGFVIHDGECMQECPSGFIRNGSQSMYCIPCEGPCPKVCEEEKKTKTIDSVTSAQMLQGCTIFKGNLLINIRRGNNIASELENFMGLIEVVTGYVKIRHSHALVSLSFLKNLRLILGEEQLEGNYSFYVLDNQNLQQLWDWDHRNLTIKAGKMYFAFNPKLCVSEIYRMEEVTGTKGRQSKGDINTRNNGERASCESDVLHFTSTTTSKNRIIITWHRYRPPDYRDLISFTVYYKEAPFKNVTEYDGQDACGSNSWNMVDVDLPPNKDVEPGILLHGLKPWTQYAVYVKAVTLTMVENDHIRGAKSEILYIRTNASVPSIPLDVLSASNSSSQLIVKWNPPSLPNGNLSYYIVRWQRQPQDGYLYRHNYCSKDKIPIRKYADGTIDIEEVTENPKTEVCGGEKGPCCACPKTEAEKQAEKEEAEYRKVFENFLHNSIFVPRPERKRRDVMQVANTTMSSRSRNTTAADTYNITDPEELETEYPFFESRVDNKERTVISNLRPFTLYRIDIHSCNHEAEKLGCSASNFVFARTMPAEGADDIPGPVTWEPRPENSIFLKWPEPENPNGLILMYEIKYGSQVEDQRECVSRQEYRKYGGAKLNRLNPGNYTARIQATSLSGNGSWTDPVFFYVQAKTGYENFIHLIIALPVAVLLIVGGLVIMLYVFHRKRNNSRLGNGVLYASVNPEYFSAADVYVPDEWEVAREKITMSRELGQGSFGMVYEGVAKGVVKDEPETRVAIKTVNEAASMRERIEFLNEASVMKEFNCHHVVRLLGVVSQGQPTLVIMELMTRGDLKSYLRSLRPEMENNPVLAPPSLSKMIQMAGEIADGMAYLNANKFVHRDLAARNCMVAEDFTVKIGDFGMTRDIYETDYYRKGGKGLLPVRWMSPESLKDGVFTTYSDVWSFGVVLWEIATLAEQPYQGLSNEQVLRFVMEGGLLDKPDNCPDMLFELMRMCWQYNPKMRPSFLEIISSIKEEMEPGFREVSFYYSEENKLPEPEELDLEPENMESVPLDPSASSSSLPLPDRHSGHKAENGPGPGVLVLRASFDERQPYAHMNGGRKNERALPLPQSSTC
In short: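 IC50 from AlphaLISA read-out of lysed PC3 cells, percent inhibition normalized between vehicle and EC80 controls. Before lysis, cells had 2 h serum-free starvation, 2 h exposure to compound in 3× dilution series, and 30 min IGF1 stimulation at final 200 ng/mL.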

IGF-1R [2] = target: T1, IGF-1R; assay: Example B-2: IGF-1R Assay (PathHunter cell lines, EC80 agonist challenge, chemiluminescent detection); format: cell-based; conditions: PathHunter cells, compound 60 minutes at 37° C., EC80 agonist 3 hours; read-out: IC50, Biological Activity against IGF-1R (Table B2)
In short: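 Read-out is PathHunter chemiluminescence, developed for 1 h at room temperature after a 3 h room-temperature EC80 agonist challenge that followed 60 min compound pre-treatment at 37° C (1% vehicle). IC50 comes from % inhibition normalized to EC80 and vehicle controls.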

## COC[C@@H](C)Nc1cc(CN2C(=O)N(c3ccc(C4(C(F)(F)F)CC4)cc3)C(=O)C2(C)C)ccn1 [Compound 114, (R)-1-((2-((1-methoxypropan-2-yl)amino)pyridin-4-yl)methyl)-5,5-dimethyl-3-(4-(1-(trifluoromethyl)cyclopropyl)phenyl)imidazolidine-2,4-dione]
IGF-1R [1]
  IC50: ≤ 500 nM
IGF-1R [2]
  IC50: ≤ 500 nM

## CC(C)(C#N)Nc1cc(CN2C(=O)N(c3ccc(C4(C(F)(F)F)CC4)cc3)C(=O)C2(C)C)ccn1 [Compound 109, 2-((4-((5,5-dimethyl-2,4-dioxo-3-(4-(1-(trifluoromethyl)cyclopropyl)phenyl)imidazolidin-1-yl)methyl)pyridin-2-yl)amino)-2-methylpropanenitrile]
IGF-1R [1]
  IC50: ≤ 500 nM
IGF-1R [2]
  IC50: ≤ 500 nM

## COc1c(CN2C(=O)N(c3ccc(S(=O)(=O)C(F)(F)F)cc3)C(=O)C2(C)C)ccnc1N [Compound 394, 1-((2-amino-3-methoxypyridin-4-yl)methyl)-5,5-dimethyl-3-(4-((trifluoromethyl)sulfonyl)phenyl) imidazolidine-2,4-dione]
IGF-1R [1]
  IC50: ≤ 500 nM
IGF-1R [2]
  IC50: ≤ 500 nM

## CC1(C)C(=O)N(c2ccc(C3(C(F)(F)F)CC3)cc2)C(=O)N1Cc1ccnc2c1CCCN2 [Compound 18, 5,5-dimethyl-1-((5,6,7,8-tetrahydro-1,8-naphthyridin-4-yl)methyl)-3-(4-(1-(trifluoromethyl)cyclopropyl)phenyl) imidazolidine-2,4-dione]
IGF-1R [1]
  IC50: ≤ 500 nM
IGF-1R [2]
  IC50: ≤ 500 nM

## CC1(C)C(=O)N(c2ccc(SC(F)(F)F)cc2)C(=O)N1Cc1ccnc(N)c1C#N [Compound 391, 2-amino-4-((5,5-dimethyl-2,4-dioxo-3-(4-((trifluoromethyl)thio)phenyl)imidazolidin-1-yl)methyl)nicotinonitrile]
IGF-1R [1]
  IC50: ≤ 500 nM
IGF-1R [2]
  IC50: ≤ 500 nM

## CC(C)Nc1cc(CN2C(=O)N(c3ccc4c(C5CC5)n[nH]c4c3)C(=O)C2(C)C)ccn1 [Compound 258, 3-(3-cyclopropyl-1H-indazol-6-yl)-1-((2-(isopropylamino)pyridin-4-yl)methyl)-5,5-dimethylimidazolidine-2,4-dione]
IGF-1R [1]
  IC50: 2000 to 10000 nM
IGF-1R [2]
  IC50: 2000 to 10000 nM

## CC1(C)C(=O)N(c2ccc(C3(C(F)(F)F)CC3)cc2)C(=O)N1Cc1ccnc(NC2CCS(=O)(=O)C2)c1 (stereo not drawn) [Compound 136, 1-((2-((1,1-dioxidotetrahydrothiophen-3-yl)amino)pyridin-4-yl)methyl)-5,5-dimethyl-3-(4-(1-(trifluoromethyl)cyclopropyl)phenyl) imidazolidine-2,4-dione]
IGF-1R [1]
  IC50: 500 to 2000 nM
IGF-1R [2]
  IC50: 500 to 2000 nM

## CC(C)C#Cc1cc(CN2C(=O)N(c3ccc(SC(F)(F)F)cc3)C(=O)C2(C)C)cnc1N [Compound 385, 1-((6-amino-5-(3-methylbut-1-yn-1-yl)pyridin-3-yl)methyl)-5,5-dimethyl-3-(4-((trifluoromethyl)thio)phenyl) imidazolidine-2,4-dione]
IGF-1R [1]
  IC50: 500 to 2000 nM

## CC(C)[C@@H]1C(=O)N(c2ccc(SC(F)(F)F)cc2)C(=O)N1Cc1ccnc(N)c1 [Compound 295, (R)-1-((2-aminopyridin-4-yl)methyl)-5-isopropyl-3-(4-((trifluoromethyl)thio)phenyl)imidazolidine-2,4-dione]
IGF-1R [1]
  IC50: 2000 to 10000 nM

## Cc1ccncc1Nc1cc(CN2C(=O)N(c3ccc(SC(F)(F)F)cc3)C(=O)C2(C)C)ccn1 [Compound 358, 5,5-dimethyl-1-((2-((4-methylpyridin-3-yl)amino)pyridin-4-yl)methyl)-3-(4-((trifluoromethyl)thio)phenyl) imidazolidine-2,4-dione]
IGF-1R [1]
  IC50: ≤ 500 nM

## CC1(C)C(=O)N(c2ccc(SC(F)(F)F)cc2)C(=O)N1Cc1ccnc(NCc2ncc[nH]2)c1 [Compound 312, 1-((2-(((1H-imidazol-2-yl)methyl)amino)pyridin-4-yl)methyl)-5,5-dimethyl-3-(4-((trifluoromethyl)thio)phenyl) imidazolidine-2,4-dione]
IGF-1R [1]
  IC50: 500 to 2000 nM

## CC1(C)C(=O)N(c2ccc(SC(F)(F)F)cc2)C(=O)N1Cc1ccnc(NCC(F)(F)F)c1 [Compound 313, 5,5-dimethyl-1-((2-((2,2,2-trifluoroethyl)amino)pyridin-4-yl)methyl)-3-(4-((trifluoromethyl)thio)phenyl) imidazolidine-2,4-dione]
IGF-1R [1]
  IC50: 500 to 2000 nM

## COCC(C)Nc1cc(CN2C(=O)N(c3ccc(C(C)(C)C)cc3)C(=O)C2(C)C)ccn1 (stereo not drawn) [Compound 265, 3-(4-(tert-butyl)phenyl)-1-((2-((1-methoxypropan-2-yl)amino)pyridin-4-yl)methyl)-5,5-dimethylimidazolidine-2,4-dione]
IGF-1R [1]
  IC50: ≤ 500 nM

## CSc1ccc(N2C(=O)N(Cc3ccnc(N)c3)C(C)(C)C2=O)cc1 [Compound 395, 1-((2-aminopyridin-4-yl)methyl)-5,5-dimethyl-3-(4-(methylthio)phenyl)imidazolidine-2,4-dione]
IGF-1R [1]
  IC50: 2000 to 10000 nM

## CC(C)Nc1cc(CN2C(=O)N(c3ccc(SC(F)(F)F)cc3)C(=O)C2(C)C)ncn1 [Compound 379, 1-((6-(isopropylamino)pyrimidin-4-yl)methyl)-5,5-dimethyl-3-(4-((trifluoromethyl)thio)phenyl) imidazolidine-2,4-dione]
IGF-1R [1]
  IC50: 500 to 2000 nM

## CC1(C)C(=O)N(c2ccc(C(C)(C)C(F)(F)F)cc2)C(=O)N1Cc1ccnc(N)c1 [Compound 95, 1-((2-aminopyridin-4-yl)methyl)-5,5-dimethyl-3-(4-(1,1,1-trifluoro-2-methylpropan-2-yl)phenyl)imidazolidine-2,4-dione]
IGF-1R [1]
  IC50: ≤ 500 nM

## CC1(C)C(=O)N(c2ccc(SC(F)(F)F)cc2)C(=O)N1Cc1ccnc(NC(=O)C2CC3(CNC3)C2)c1 [Compound 302, N-(4-((5,5-dimethyl-2,4-dioxo-3-(4-((trifluoromethyl)thio)phenyl)imidazolidin-1-yl)methyl)pyridin-2-yl)-2-azaspiro[3.3]heptane-6-carboxamide]
IGF-1R [1]
  IC50: ≤ 500 nM

## Cc1cccc(NC(=O)Nc2cc(CN3C(=O)N(c4ccc(SC(F)(F)F)cc4)C(=O)C3(C)C)ccn2)c1 [Compound 372, 1-(4-((5,5-dimethyl-2,4-dioxo-3-(4-((trifluoromethyl)thio)phenyl)imidazolidin-1-yl)methyl)pyridin-2-yl)-3-(m-tolyl)urea]
IGF-1R [1]
  IC50: ≤ 500 nM

## CC1(C)C(=O)N(c2ccc(SC(F)(F)F)cc2)C(=O)N1Cc1ccnc(Nc2ncc[nH]2)c1 [Compound 352, 1-((2-((1H-imidazol-2-yl)amino)pyridin-4-yl)methyl)-5,5-dimethyl-3-(4-((trifluoromethyl)thio)phenyl) imidazolidine-2,4-dione]
IGF-1R [1]
  IC50: ≤ 500 nM

## 5,5-dimethyl-1-((2-((2-methyl- 3-oxoisoindolin-5- yl)amino)pyridin-4-yl)methyl)- 3-(4- ((trifluoromethyl)thio)phenyl) amidazolidine-2,4-dione [Compound 272]
IGF-1R [1]
  IC50: ≤ 500 nM

## CC1(C)CNc2cc(N3C(=O)N(Cc4ccnc(N)c4)C(C)(C)C3=O)ccc21 [Compound 401, 1-((2-aminopyridin-4-yl)methyl)-3-(3,3-dimethylindolin-6-yl)-5,5-dimethylimidazolidine-2,4-dione]
IGF-1R [1]
  IC50: ≤ 500 nM

## CC(C)Nc1cc(CN2C(=O)N(c3ccc(SC(F)(F)F)cc3)C(=O)C2(C)C)cc(F)n1 [Compound 383, 1-((2-fluoro-6-(isopropylamino)pyridin-4-yl)methyl)-5,5-dimethyl-3-(4-((trifluoromethyl)thio)phenyl) imidazolidine-2,4-dione]
IGF-1R [1]
  IC50: 2000 to 10000 nM

## COc1cc(NC(=O)Nc2cc(CN3C(=O)N(c4ccc(SC(F)(F)F)cc4)C(=O)C3(C)C)ccn2)ccc1O[C@H]1C[C@@H](N(C)C)C1 [Compound 351, 1-(4-((5,5-dimethyl-2,4-dioxo-3-(4-((trifluoromethyl)thio)phenyl)imidazolidin-1-yl)methyl)pyridin-2-yl)-3-(4-((1s,3s)-3-(dimethylamino)cyclobutoxy)-3-methoxyphenyl)urea]
IGF-1R [1]
  IC50: ≤ 500 nM

## CC(C)(C)c1ccc(N2C(=O)N(Cc3ccnc(-c4ccn[nH]4)c3)C(C)(C)C2=O)cc1 [Compound 347, 1-((2-(1H-pyrazol-5-yl)pyridin-4-yl)methyl)-3-(4-(tert-butyl)phenyl)-5,5-dimethylimidazoline-2,4-dione]
IGF-1R [1]
  IC50: ≤ 500 nM

## CCC(C)Nc1cc(CN2C(=O)N(c3ccc(SC(F)(F)F)cc3)C(=O)C2(C)C)ccn1 (stereo not drawn) [Compound 381, 1-((2-(sec-butylamino)pyridin-4-yl)methyl)-5,5-dimethyl-3-(4-((trifluoromethyl)thio)phenyl)imidazolidine-2,4-dione]
IGF-1R [1]
  IC50: ≤ 500 nM

## CC1(C)C(=O)N(c2ccc(SC(F)(F)F)cc2)C(=O)N1Cc1ccnc(NC2CCCC2)c1 [Compound 369, 1-((2-(cyclopentylamino)pyridin-4-yl)methyl)-5,5-dimethyl-3-(4-((trifluoromethyl)thio)phenyl) imidazolidine-2,4-dione]
IGF-1R [1]
  IC50: ≤ 500 nM

## CC(C)(C)c1ccc(N2C(=O)N(Cc3ccnc(NC4CC(F)(F)C4)c3)C(C)(C)C2=O)cc1 [Compound 270, 3-(4-(tert-butyl)phenyl)-1-((2-((3,3-difluorocyclobutyl)amino)pyridin-4-yl)methyl)-5,5-dimethylimidazolidine-2,4-dione]
IGF-1R [1]
  IC50: ≤ 500 nM

## CN1CC(Nc2cc(CN3C(=O)N(c4ccc(C(C)(C)C)cc4)C(=O)C3(C)C)ccn2)C1 [Compound 345, 3-(4-(tert-butyl)phenyl)-5,5-dimethyl-1-((2-((1-methylazetidin-3-yl)amino)pyridin-4-yl)methyl)imidazolidine-2,4-dione]
IGF-1R [1]
  IC50: 500 to 2000 nM

## CC(C)Nc1cc(CN2C(=O)N(c3ccc(C4CC4(C)C)cc3)C(=O)C2(C)C)ccn1 (stereo not drawn) [Compound 108, 3-(4-(2,2-dimethylcyclopropyl)phenyl)-1-((2-(isopropylamino)pyridin-4-yl)methyl)-5,5-dimethylimidazolidine-2,4-dione]
IGF-1R [1]
  IC50: ≤ 500 nM
